≈ marks a conversion by molar mass, not a printed value. Entries after “also recorded” stand apart in the source; their conditions may differ. One block for each compound: values may come before it.
Columns and labels:
HepG2 cells [1] = assay: In-vitro cell cycle analysis (PI flow cytometry); format: cell-based, human
Method: HepG-2 cells are pre-cultured in 25 cm^2 cell culture flask. RPMI-1640 medium was used. Tested compounds 7b, 9c, 15b, 16a and 16c were used in the cell treatment at their IC50 by dissolving them in the required medium separately. The procedure was discussed in details in the ESI.
For cell cycle analysis, stained DNA from HepG2 cancer cells was treated with compounds 7b, 15b, 16a and 16c that induce cancer cell death by inhibiting TrKA. From the results in Table 5, it can be seen that the proportion of cells at phase in the pre-G1 of compounds 7b, 15b, 16a and 16c increased the proportion of cells at phase in the G2/M by about 4, 4, 2.5 and 3 folds, respectively.
HepG-2 cells were pre-cultured in 25 cm^2 cell culture flasks; RPMI-1640 medium was used. Tested compounds 7b, 15b, 16a and 16c were dissolved separately in the required medium and used in the cell treatment at their IC50. After overnight treatment the cells were collected and fixed gently with 70% (v/v) ethanol in PBS, incubated overnight at 4 °C, and resuspended in PBS containing 40 µg/ml propidium iodide (PI), 0.1 mg/ml RNase and 0.1% (v/v) Triton X-100 in the dark room at after 30 min at 37 °C, the cell cycle analysis was performed using a flow cytometer, equipped with an argon ion laser at a wavelength of 488 nm (Becton-Dickinson, San Josa, CA, USA) and the percentage of cells at G1, S and G2/M was also calculated.

MCF7 cell line = assay: MTT assay, MCF7 cell line; format: cell-based, human; settings: 24 hr treatment, in % (unit assumed)
Method in brief: (§1)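 Cells in RPMI-1640 with 10% FBS were seeded at 1.0x10^4 cells/well and cultured 48 h, then exposed to compound for 24 hr. Viability was measured by MTT reduction (4 hr), with formazan dissolved in DMSO and read at 570 nm, relative to untreated cells. Values are means of three independent triplicate experiments.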

HepG2 cell line = assay: MTT assay, HepG2 cell line; format: cell-based, human
Method in brief: as §1

[2] = molecular target: T1, Tropomyosin receptor kinase A (TrKA) (Homo sapiens, UniProt P04629); assay: Tropomyosin receptor kinase A (TrKA) inhibitory assay (Kinase-Glo MAX kit); format: biochemical; settings: in vitro kinase assay, recombinant TrkA
T1 construct: purchased
T1 sequence (P04629 33-796): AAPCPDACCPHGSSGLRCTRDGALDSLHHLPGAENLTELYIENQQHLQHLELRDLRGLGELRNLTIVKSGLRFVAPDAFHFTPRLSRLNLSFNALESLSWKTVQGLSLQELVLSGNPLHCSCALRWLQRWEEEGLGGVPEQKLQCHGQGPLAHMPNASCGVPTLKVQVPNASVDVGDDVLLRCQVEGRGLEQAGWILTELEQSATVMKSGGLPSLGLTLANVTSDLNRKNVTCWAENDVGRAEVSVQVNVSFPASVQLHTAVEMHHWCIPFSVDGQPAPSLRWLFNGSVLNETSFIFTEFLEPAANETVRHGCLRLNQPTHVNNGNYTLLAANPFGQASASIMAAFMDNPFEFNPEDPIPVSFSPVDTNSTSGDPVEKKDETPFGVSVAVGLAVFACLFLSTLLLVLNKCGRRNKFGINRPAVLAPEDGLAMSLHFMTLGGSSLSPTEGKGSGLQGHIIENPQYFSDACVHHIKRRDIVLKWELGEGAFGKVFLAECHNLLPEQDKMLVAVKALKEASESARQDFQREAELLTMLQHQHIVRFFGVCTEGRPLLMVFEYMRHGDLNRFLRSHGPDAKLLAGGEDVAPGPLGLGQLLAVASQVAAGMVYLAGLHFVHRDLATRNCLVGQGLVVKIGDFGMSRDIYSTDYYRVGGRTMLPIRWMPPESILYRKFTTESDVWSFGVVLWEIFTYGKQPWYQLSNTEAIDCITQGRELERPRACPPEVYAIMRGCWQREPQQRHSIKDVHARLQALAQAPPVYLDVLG
Description: (§2) The TrkA assay Kit is designed to measure TrkA activity for screening and profiling applications using Kinase-Glo® MAX as a detection reagent. The TrkA Assay Kit comes in a convenient 96-well format, with enough purified recombinant TrkA enzyme, TrkA substrate, ATP and kinase assay buffer for 100 enzyme reactions. The method was discussed in details in the ESI.
as §2, with “reactions.” for “reactions. The method was discussed in details in the ESI.”
The assay protocol: all samples and controls should be tested in duplicate. Dissolve 5x Kinase Assay Buffer 1, ATP, and PTK Substrate Poly (Glu:Tyr 4:1) (10 mg/ml). 2). The master mixture (25 μl per well) was prepared by N wells x (6 μl 5x Kinase Assay Buffer 1 + 1 μl ATP (500 μM) + 1 μl PTK Substrate Poly (Glu:Tyr 4:1) (10mg/ml) + 17 μl water). Add 5 μl of Inhibitor solution of each well labeled as “Test Inhibitor”. For the “Positive Control" and “Blank”, add 5 μl of the same solution without inhibitor (Inhibitor buffer). Prepare 3 ml of 1x Kinase assay buffer 1 by mixing 600 μl of 5x Kinase assay buffer 1 with 2400 μl water 3 ml of 1x Kinase assay buffer is sufficient for 100 reactions. To the wells designated as "Blank", add 20 μl of 1x Kinase assay buffer 1and thaw TrkA enzyme on ice. Upon first thaw, briefly spin tube containing enzyme to recover full content of the tube. Calculate the amount of TrkA required for the assay and dilute enzyme to 5 ng/μl with 1x Kinase assay buffer. Store remaining undiluted enzyme in aliquots at -80°C. Then initiate reaction by adding 20 μl of diluted TrkA enzyme to the wells designated “Positive Control” and "Test Inhibitor Control". Incubate at 30°C for 45minutes and thaw Kinase-Glo Max reagent. After the 45 minute reaction, add 50 μl of Kinase-Glo Max reagent to each well. Cover plate with aluminum foil and incubate the plate at room temperature for 15 minutes. Immediately read sample in a luminometer or microtiter-plate capable of reading chemiluminescence. “Blank” value is subtracted from all readings.

HepG2 cells [3] = assay: Annexin V-FITC apoptosis assay; format: cell-based, human
Method: HepG-2 cells were harvested and incubated with compounds 7b, 15b, 16a and 16c separately for 48 h. Then, the cells were collected and washed with PBS two successive times followed by centrifugation. After that, the cells were treated with Annexin V-FITC and propidium iodide (PI) using the apoptosis detection kit (BD Biosciences and Annexin V-FITC and PI binding were analyzed by a flow cytometer.
Early and late apoptosis was determined after treatment of HepG2 cells with compounds 7b, 15b, 16a and 16c compared with untreated control cells. The late apoptosis rate increased by about 13, 20, 4 and 3 times, respectively, showing a higher efficiency than the early apoptosis ratio 5, 2, 8 and 6 times, respectively.
As mentioned above, HepG-2 cells were collected and incubated separately with compounds 7b, 15b, 16a and 16c for 48 hr. Cells were then collected and washed twice consecutively with PBS and centrifuged. After that, the cells were treated with Annexin V-FITC and propidium iodide (PI) using an apoptosis detection kit (BD Biosciences, San Jose, CA) according to the manufacturer's instructions. The biding of Annexin V-FITC and PI was analyzed by ﬂow cytometer.

HCT-116 cell line = assay: MTT assay, HCT-116 cell line; format: cell-based, human; settings: MTT, 24 hr treatment, in % (unit assumed)
Method in brief: as §1

Trk family = system: Trk family; parameters: method as in earlier work; settings: cited from earlier work
[4] = HepG2, compared with untreated control cells

IC50 (HepG2 cell line; Homo sapiens, HepG2, MTT, read-out: IC50 (drug concentration that inhibited 50% of cell proliferation)): 4.64 ng/mL (≈ 0.0132 µM) | IC50 [2]: 0.288 µM
SMILES: COc1ccc(C=C2C(=O)NC(=O)c3c2nn2c(O)cc(C)nc32)cc1 [Compound 15b, 4-Hydroxy-7-(4-methoxybenzylidene)-2-methylpyrido[4ʹ,3ʹ:3,4]pyrazolo[1,5-a]pyrimidine-8,10(7H,9H)-dione]
Cell cycle comment (phase of arrest) (HepG2 cells [1]; HepG2): arrested in the cell cycle at G2/M phase; also recorded: arrest in cell cycle at the G2/M phase; also recorded: cell growth arrest@G2/M | DNA content %G0-G1 (HepG2 cells [1]; HepG2, compound at its IC50): 33.57% | DNA content %G2/M (HepG2 cells [1]; HepG2, compound at its IC50): 36.72% | DNA content %Pre-G1 (HepG2 cells [1]; HepG2, compound at its IC50): 32.51% | DNA content %S (HepG2 cells [1]; HepG2, compound at its IC50): 29.71% | increase of the proportion of cells in the G2/M phase (HepG2 cells [1]; HepG2, versus control): about 4 folds | Cytotoxicity at 5 µg/l (MCF7 cell line; MCF7, 5 µg/l): 28.52 | Cytotoxicity at 10 µg/l (MCF7 cell line; MCF7, 10 µg/l): 62.92 | Cytotoxicity at 20 µg/l (MCF7 cell line; MCF7, 20 µg/l): 83.62 | Cytotoxicity at 5 µg/l (HepG2 cell line; HepG2, 5 µg/l, MTT, 24 hr treatment, in % (unit assumed)): 49.48 | Cytotoxicity at 10 µg/l (HepG2 cell line; HepG2, 10 µg/l, MTT, 24 hr treatment, in % (unit assumed)): 75.98 | Cytotoxicity at 20 µg/l (HepG2 cell line; HepG2, 20 µg/l, MTT, 24 hr treatment, in % (unit assumed)): 78.66 | Apoptosis Early (HepG2 cells [3]; HepG2, 48 h, Annexin V-FITC/PI): 2.93% | Apoptosis Late (HepG2 cells [3]; HepG2, 48 h, Annexin V-FITC/PI): 20.12% | Necrosis (HepG2 cells [3]; HepG2, 48 h, Annexin V-FITC/PI): 9.46% | apoptosis-inducing effect (HepG2 cells [3]; HepG2, as stated in the abstract): 36.72% | increase of early apoptosis ratio (HepG2 cells [3]; [4]): 2 times | increase of late apoptosis rate (HepG2 cells [3]; [4]): ~20 times | Cytotoxicity at 5 µg/l (HCT-116 cell line; HCT116, 5 µg/l): 26.10 | Cytotoxicity at 10 µg/l (HCT-116 cell line; HCT116, 10 µg/l): 66.87 | Cytotoxicity at 20 µg/l (HCT-116 cell line; HCT116, 20 µg/l): 84.20

SMILES: O=C(Nc1cnn2ccc(N3CCC[C@@H]3c3cc(F)ccc3F)nc12)N1CC[C@H](O)C1 [Larotrectinib]
IC50 (Trk family): 0.002 to 0.02 µM

Source: article PMC10999085, “Synthesis, anticancer evaluation, molecular docking and ADME study of novel pyrido[4ʹ,3ʹ:3,4]pyrazolo[1,5-a]pyrimidines as potential tropomyosin receptor kinase A (TrKA) inhibitors” (BMC Chemistry, 2024)
